“And” between values parts separate entries of the source, which are not always exact repeats. Identical values can stand only once.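 All cell lines were grown in 96-well plates and treated with compound for 48 hours. The concentration for 50% growth inhibition is given as GI50.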 The source made the active and inactive calls. Cut-off read from the data, not from the text of the source: active = GI50 up to about 1.1 µM and inactive = higher.

Some test systems named below: OVCAR-4; SF-295; 786-0; UACC-62; RXF 393; MDA-N; UO-31; SNB-19; SW-620; NCI-H226; HCC 2998; OVCAR-3; HCT-116; SK-OV-3; HL-60; A498; K562; RPMI-8226; CCRF-CEM; MOLT-4.
Experiment in all cases: DTP human tumour cell line panel, 48 h

`O=C1Nc2nnc(S)n2NC12c1ccccc1-c1ccccc12`: the GI50 is 19.1 µM (inactive) with OVCAR-4; > 100 µM (inactive) in the experiment on SF-295; > 100 µM (inactive) with 786-0; 22.4 µM (inactive) in the experiment on UACC-62; > 100 µM (inactive) in the experiment on RXF 393; 34.5 µM (inactive) in the experiment with MDA-N. The GI50 in the experiment on UO-31, in the experiment with SNB-19, with SW-620, in the experiment with NCI-H226, with HCC 2998 and in the experiment on OVCAR-3 was > 100 µM (inactive) throughout. In addition, the GI50 was 24.2 µM (inactive) with HCT-116, > 100 µM (inactive) with SK-OV-3, > 100 µM (inactive) in the experiment on HL-60 and > 100 µM (inactive) in the experiment on A498.

With `O=C(CC(C(=O)c1cccs1)c1ccsc1)c1ccsc1` (stereo unspecified), the GI50 is 27.4 µM (inactive) with K562; 27.4 µM (inactive) with OVCAR-4; 24.6 µM (inactive) in the experiment with SF-295; 46.2 µM (inactive) in the experiment with 786-0; 14 µM (inactive) in the experiment on UACC-62; 25.6 µM (inactive) in the experiment on RXF 393. The GI50 in the experiment with MDA-N is > 10 µM (inactive); in the experiment on UO-31, 31.4 µM (inactive); in the experiment on SNB-19, 50.6 µM (inactive); in the experiment on SW-620, 29.7 µM (inactive); with RPMI-8226, 27.1 µM (inactive); in the experiment on CCRF-CEM, 29 µM (inactive). In addition, the GI50 in the experiment with HCC 2998 is 34.1 µM (inactive); in the experiment with OVCAR-3, 40.2 µM (inactive); in the experiment on HCT-116, 27.4 µM (inactive); in the experiment on SK-OV-3, 32.1 µM (inactive); with MOLT-4, 21 µM (inactive); in the experiment on HL-60 it was 40.1 µM (inactive). The GI50 with A498 was 11.4 µM (inactive).

Regarding `COc1ccc(NC(=O)Oc2cc(C)c3ccc(=O)cc-3o2)c(OC)c1.COc1ccc(NC(=O)Oc2ccc3c(C)cc(=O)oc3c2)c(OC)c1`, the GI50 with OVCAR-4 was 69.8 µM (inactive); in the experiment with SF-295 it was > 100 µM (inactive); in the experiment with 786-0 it was > 100 µM (inactive); with UACC-62, > 100 µM (inactive); in the experiment on RXF 393 it was > 100 µM (inactive); in the experiment with MDA-N it was > 100 µM (inactive). Moreover, the GI50 in the experiment with UO-31 is > 100 µM (inactive); in the experiment on SNB-19, > 100 µM (inactive); in the experiment on SW-620, > 100 µM (inactive); with RPMI-8226, > 100 µM (inactive); with NCI-H226, > 100 µM (inactive); with HCC 2998, 82.8 µM (inactive). Besides, the GI50 was > 100 µM (inactive) with OVCAR-3; > 100 µM (inactive) with HCT-116; > 100 µM (inactive) in the experiment on SK-OV-3; > 100 µM (inactive) in the experiment on MOLT-4; 31.9 µM (inactive) with A498.

As for `C=C(C(=O)O)[C@@H]1C[C@@H]2O[C@H]1[C@@H](O)[C@@H](C)CCCC(C)=CCC[C@@]2(C)O`, the GI50 in the experiment with OVCAR-4 was > 100 µM (inactive); with SF-295 it was > 100 µM (inactive); in the experiment on 786-0 it was 56.6 µM (inactive) and > 69.5 µM (inactive); in the experiment on UACC-62, > 100 µM (inactive) and > 90.4 µM (inactive); in the experiment on RXF 393, > 100 µM (inactive) and > 89.1 µM (inactive); with MDA-N, 59.4 µM (inactive) and 71.1 µM (inactive). In addition, the GI50 in the experiment with UO-31 is > 100 µM (inactive) and 69 µM (inactive); in the experiment on SNB-19, > 100 µM (inactive); in the experiment on SW-620 it was 39.8 µM (inactive) and 58.1 µM (inactive); with CCRF-CEM, 33.3 µM (inactive) and > 46.8 µM (inactive); in the experiment on NCI-H226 it was > 100 µM (inactive); with HCC 2998, > 100 µM (inactive). Further, the GI50 in the experiment on OVCAR-3 is > 100 µM (inactive) and > 88.7 µM (inactive); with HCT-116, 64.1 µM (inactive) and > 83.4 µM (inactive); in the experiment on SK-OV-3 it was > 100 µM (inactive); with A498, > 100 µM (inactive).

For `CC(=O)OCC1OC(N2C(=O)CC(N)=Nc3ccccc32)C(OC(C)=O)C(OC(C)=O)C1OC(C)=O` (stereo unspecified), the GI50 was 32.6 µM (inactive) in the experiment on K562; 57.8 µM (inactive) in the experiment with OVCAR-4; 74 µM (inactive) with SF-295; > 100 µM (inactive) in the experiment with 786-0; 34.6 µM (inactive) in the experiment with UACC-62; 23.1 µM (inactive) in the experiment with RXF 393. The GI50 is 32.7 µM (inactive) in the experiment on MDA-N; > 100 µM (inactive) in the experiment on UO-31; > 100 µM (inactive) with SNB-19; 87.5 µM (inactive) in the experiment on SW-620; 14.4 µM (inactive) in the experiment with RPMI-8226; > 100 µM (inactive) in the experiment with CCRF-CEM. Besides, the GI50 with HCC 2998 is 75.7 µM (inactive); with OVCAR-3, 52.6 µM (inactive); in the experiment with HCT-116, 81.8 µM (inactive); with SK-OV-3, > 100 µM (inactive); in the experiment with MOLT-4, 16.7 µM (inactive); in the experiment on HL-60, 67.3 µM (inactive). Moreover, in the experiment with A498, the GI50 is 62.8 µM (inactive).

Turning to `Cc1n[nH]c(=O)n1C1CCCC1`, the GI50 in the experiment with K562, in the experiment with OVCAR-4, in the experiment on SF-295, in the experiment on 786-0, in the experiment on RXF 393 and in the experiment with MDA-N was > 100 µM (inactive) in each case. For the same compound, the GI50 in the experiment on UO-31, in the experiment with SNB-19, with SW-620, in the experiment with RPMI-8226, in the experiment with CCRF-CEM and with NCI-H226 was > 100 µM (inactive) in each case. Moreover, the GI50 in the experiment on HCC 2998, in the experiment with OVCAR-3, in the experiment with HCT-116, in the experiment on MOLT-4, in the experiment on HL-60 and with A498 was > 100 µM (inactive) throughout.

Turning to `CC(=O)Oc1ccc(/C=C/C(=O)NCCOC(=O)/C=C/c2ccc(OC(C)=O)c(OC(C)=O)c2)cc1OC(C)=O`, the GI50 with K562 is 32.4 µM (inactive); in the experiment with OVCAR-4, 18.4 µM (inactive); in the experiment on SF-295 it was 23.7 µM (inactive); in the experiment with 786-0 it was 19.5 µM (inactive); in the experiment on UACC-62 it was 18.7 µM (inactive); with RXF 393 it was 11.7 µM (inactive). The GI50 in the experiment on MDA-N was 22.5 µM (inactive); in the experiment with UO-31, 22.9 µM (inactive); in the experiment on SNB-19, 21.2 µM (inactive); with SW-620, 19.3 µM (inactive); in the experiment with RPMI-8226 it was 26.2 µM (inactive); in the experiment with CCRF-CEM, 0.571 µM (active). Moreover, the GI50 in the experiment on HCC 2998 is 34.3 µM (inactive); in the experiment on OVCAR-3, 16.1 µM (inactive); with HCT-116 it was 14.5 µM (inactive); in the experiment on SK-OV-3, 42 µM (inactive); in the experiment on MOLT-4, 4.8 µM (inactive); in the experiment on A498 it was 31.7 µM (inactive).

As to `COC(=O)CCC1(O)C=CC(=O)C=C1`, the GI50 is 38.9 µM (inactive) in the experiment with K562; 65.8 µM (inactive) in the experiment with OVCAR-4; > 100 µM (inactive) in the experiment with SF-295; 36.4 µM (inactive) in the experiment on 786-0; 20.3 µM (inactive) in the experiment on UACC-62; 23.6 µM (inactive) in the experiment on RXF 393. Besides, the GI50 was 63.4 µM (inactive) with MDA-N; 55 µM (inactive) in the experiment on UO-31; 37.8 µM (inactive) with SNB-19; 29.8 µM (inactive) in the experiment with SW-620; 31.7 µM (inactive) with RPMI-8226; 43.4 µM (inactive) in the experiment with CCRF-CEM. Also, the GI50 is > 100 µM (inactive) in the experiment on NCI-H226; 63.5 µM (inactive) with HCC 2998; 24.4 µM (inactive) with OVCAR-3; 34 µM (inactive) in the experiment on HCT-116; 37.7 µM (inactive) in the experiment with MOLT-4; > 100 µM (inactive) in the experiment on A498.

Turning to `CC1(C)C2CCC1(C)C(N/C(=C(/C(Cl)=C(Cl)Cl)[N+](=O)[O-])n1nnc3ccccc31)C2` (stereo unspecified), the GI50 with OVCAR-4 is 24.1 µM (inactive); in the experiment with SF-295, 24.3 µM (inactive); with 786-0 it was 41.1 µM (inactive); in the experiment with UACC-62, 20 µM (inactive); in the experiment on RXF 393, 19.2 µM (inactive); in the experiment on MDA-N, 36.4 µM (inactive). Also, the GI50 in the experiment on UO-31 is 21 µM (inactive); with SNB-19, 25.1 µM (inactive); with SW-620, 27.2 µM (inactive); with RPMI-8226, 25.7 µM (inactive); with CCRF-CEM, 21 µM (inactive); in the experiment on NCI-H226 it was 19.5 µM (inactive). Moreover, the GI50 is 40.6 µM (inactive) with HCC 2998; 12.4 µM (inactive) in the experiment on OVCAR-3; 43 µM (inactive) in the experiment with HCT-116; 40 µM (inactive) in the experiment on SK-OV-3; 19.9 µM (inactive) in the experiment on A498.

Consider `CN1Cc2ccccc2/C=C\c2ccccc21`, for which the GI50 was 38.5 µM (inactive) with OVCAR-4; 62.7 µM (inactive) with SF-295; 95.9 µM (inactive) in the experiment with 786-0; 60.8 µM (inactive) in the experiment on UACC-62; 30.1 µM (inactive) with RXF 393; 42.2 µM (inactive) in the experiment on MDA-N. Moreover, the GI50 with UO-31 is 80.2 µM (inactive); with SNB-19, > 100 µM (inactive); in the experiment with SW-620, > 100 µM (inactive); in the experiment with RPMI-8226, 25.4 µM (inactive); with CCRF-CEM it was 47.3 µM (inactive); with NCI-H226, > 100 µM (inactive). The GI50 was 47.9 µM (inactive) with HCC 2998; 47.3 µM (inactive) with OVCAR-3; 78.2 µM (inactive) with HCT-116; 87.3 µM (inactive) in the experiment on SK-OV-3; 69.5 µM (inactive) in the experiment on A498.

Regarding `O=C(O)c1ccc(OCc2nc3cc(C(F)(F)F)ccc3nc2-c2ccccc2)cc1`, the GI50 is 39.4 µM (inactive) with K562; 39.1 µM (inactive) in the experiment with SF-295; 98.4 µM (inactive) in the experiment with 786-0; 37.6 µM (inactive) in the experiment with UACC-62; 36.8 µM (inactive) in the experiment with RXF 393; 46.1 µM (inactive) in the experiment on MDA-N. Moreover, the GI50 in the experiment on UO-31 is 22 µM (inactive); in the experiment with SNB-19, 73.8 µM (inactive); with SW-620, 53.2 µM (inactive); in the experiment on CCRF-CEM, 42.8 µM (inactive); in the experiment with NCI-H226 it was 91.4 µM (inactive); in the experiment with HCC 2998 it was 41.2 µM (inactive). For the same compound, the GI50 was 34.8 µM (inactive) in the experiment with OVCAR-3, 36.9 µM (inactive) in the experiment with HCT-116, 40 µM (inactive) in the experiment with HL-60 and > 100 µM (inactive) in the experiment on A498.

In general, GI50 refers to the concentration at which growth is held to half of that of the control.

The record behind these values is ChEMBL document CHEMBL1201862, “PubChem BioAssay data set” (2004).
